Experimental data published in US7306817B2, “Herbal composition for treating CD33+ acute and chronic myeloid leukemia and a method thereof” (Council of Scientific and Industrial Research, priority 2000, dated 2007).

Columns and labels:
[1] = test system: CD33+ myeloid leukemia cells; test: Destruction of CD33+ myeloid leukemia cells (patient PBMC) in vitro, viability count and flow cytometry; type: cell-based, human; settings: purified compound, varied concentrations, 48 h
Experimental: (§1) Whole blood (10 ml) was drawn from a previously diagnosed CD33+ myeloid leukemic patient and mononuclear cells were separated by Ficoll/hypaqal density gradient centrifugation.
Incubation of PBMC of myeloid leukemia patients with crude Piper betel extract. PBMC (2×10^6/ml) of myeloid leukemia patients were incubated with Piper betel extract (10.0 mg/ml) for 48 hours and then washed and counted for viability.
Incubation of PBMC of myeloid leukemia patients with fraction E in vitro. PBMC (2×10^6/ml) of myeloid leukemia patients were incubated with varied concentrations of fraction E for 48 hours. Cells were then washed and counted for viability.
(§2) Incubation of PBMC of myeloid leukemia patients with purified compound 3-O-p-coumaryl quinic acid in vitro. PBMC (2×10^6/ml) of myeloid leukemia patients were incubated with varied concentrations of purified compound for 48 h. Cells were then washed, and counted for viability.
Flow cytometry of myeloid leukemia cells; Myeloid leukemia cells before and after in vitro incubation with crude Piper betel extract, purified fraction E or purified 3-O-p-coumaryl quinic acid were marked with anti-CD33-FITC and anti-CD13-PE monoclonal antibodies. Cells were then analysed in a flow cytometer (FACS Calibur, Bection Dickinson, USA).

AML cells = test: Growth inhibition of AML cells in vitro; type: cell-based, human; settings: single fraction, dose 100 μg/ml, 48 hrs
Experimental: as §1, §2
Incubation of myeloid leukemic cells with fractions having retention time 3.60 (fraction-1) and 24.00 min (fraction 9). PBMC of myeloid leukemic patients were incubated with above-mentioned fractions, alone or in combination of the two for 48 hrs. Cells were then washed and counted for viability.

O=C(C=Cc1ccc(O)cc1)OC1CC(O)(C(=O)O)CC(O)C1O (centres unmarked) [3-O-p-coumaryl quinic acid]
effect on PBMC of CD33+ myeloid leukemia patients (both AML and CML) [1]: destroyed
% Inhibition of growth (AML cells): 54.00%
